Patent US20140099354A1, “BIOPASSIVATING MEMBRANE STABILIZATION BY MEANS OF NITROCARBOXYLIC ACID-CONTAINING PHOSPHOLIPIDS IN PREPARATIONS AND COATINGS” (priority 2011, published 2014)
Like-named read-outs stand apart in the source and are kept apart here.

How the values were obtained:
[1] = Abrasion stability and traction work load of coated balloon catheters; type: physicochemical
Method: Balloon catheters were coated by means of the Langmuir-Schaefer procedure where the balloon segment was aligned longitudinally and coaxial to the solution surface, dipping into the liquid for approx. 1 mm over the entire length. Then the catheter was slowly rotated around its axis 5 times. Phospholipids were dissolved at a concentration of 3 mmol in an ion-free aqueous solution at 50° C. The solution was cooled and given to the coating solution then. In case of incomplete dissolution of the phospholipids or if they separated when cooled, DMSO was added at a concentration of up to 20 vol.-%, preferably up to 10 vol.-%. After coating, the catheters were vacuum dried for 8 hours in order to remove residual solvent.
The tubing was filled with a 10% human albumin solution at a temperature of 35° C. The cable system, which had previously been brought through the tubing was connected to the catheter tip and tracked outside the tubing by reversing pulleys, which allowed exactly vertically traction of the cable that was connected to a motorized winch. The winch was mounted on a digital precision balance. The catheters mounted in this manner were pulled through the tubing system and the weight changes measured by the balance, which represented the traction work load achieved for the passage of the catheter, was recorded continuously. These readings were integrated over time. The resultant values allow estimation of the total shear force that occurred during the passage of the catheter through the tubing system.
The abrasion or loss of coating layers was determined by weighing the catheter before and after coating as well as after the mechanical stability test in the tubing system as described above using a high precision balance.

[2] = test system: TRPV1, 2 and 4, TRPA1; test: Inducible ion current of TRP receptors in Xenopus oocytes (voltage clamp); type: cell-based, rat; conditions: 50 mmol/l, 10 and 60 minutes
Method: An established in-vitro model of Xenopus oocytes (Dascal N, 1987 The use of Xenopus oocytes. CRC critical reviews in biochemistry 22, 317-387) was used to study the influence of incubation with PL on ion channels regulated by membrane receptors. Defolliculized oocytes were transfected with cRNA (rat) of TRPV1, 2 and 4, as well as of TRPA1, stored in tissue culture plates and incubated in culture medium (ND 96) at 15° C. under constant motion in the incubator for 7 to 10 days.
Induced leakage currents through activation of the TRP receptors was determined by means of double electrode voltage-clamp technique (Ahern G P, Brooks I M, Miyares R L &Wang X B, 2005, Extracellular cations sensitize and gate capsaicin receptor TRPV1 modulating pain signalling. J Neurosci 25, 5109-5116). Ooocytes were probed with borosilicate glass capillaries (Clark) and connected to a feedback amplifier (Gene clamp Amplifier, Axon instruments). The membrane potential of oocytes was clamped to −60 or −90 mV. The presence of a directive […] current was compared to non-transfected controls. The investigations were performed in a miniature organ bath in calcium-free buffered (Hepes, pH 7.3) NaCl solution. The TRPV1 receptor excitation was initiated by rapidly changing of the bath solution against a capsaicin solution (10 μmol). Results of non-pretreated oocytes were used for normative comparison of subsequent measurements of incubatesd cells. Investigations with incubated cells were carried out in the same way for oocytes transfected with the TRPV2, and TRPV4 and TRPA1 receptors, wherein the receptor agonists cannabidiol (10 μmol) and 4α-PDD (4α-phorbol 12,13-didecanoate, 50 μmol) and innamaldehyde (50 μmol) were used instead of capsaicin.

[3] = Tissue response to coated silicone implants in vivo after bleomycin; design: species or system Wistar rats; conditions: silicone cushions, subcutaneous, 7 to 90 days
Method: Induction of fibrotic tissue production by connective tissue activation as a consequence of implantation of foreign material was examined in an in-vivo animal model. As implant materials, sterile silicone cushions having a diameter of 1 cm were used.
In male Wistar rats (190-240 g) that were fed and housed under identical conditions for one week, general anaesthesia was performed by intramuscular injection of 0.008 mL/100 g ketamine and 0.004 mL/100 g xylocaln chloride 2%. Then the back of the animals was shaved, sterilized and infiltrated with xylocalne chloride. A paravertebral incision was made on both sides with a length of 1.5 cm followed by preparation of the subcutaneous tissue, so that on both sides approx. 2×2 cm cavities were preformed. Hemostasis was achieved by cauterization, if necessary. Then balls of cotton saturated with Bleomycin (cell-pharm GmbH, Hannover, Germany: 1% in 0.9% NaCl solution) were inserted into the cavities for 3 minutes and then removed. Without rinsing the cavities, the implants coated with a nitrated phospholipid were inserted into the cavity on the left side and the implants coated with natural phospholipid into the cavity on the right side. Thereafter, a layer by layer wound closure was performed and a sterile adhesive bandage was applied.
The animals were kept according to standard conditions for 7, 14, 30, 60 and 90 days. At any study time endpoint, two animals were euthanized. After death the well visible and palpable implants were removed using en-block resection technique. The resected specimens were fixed and embedded in paraffin. Then they were cut in half and the liquid silicone was removed. The specimens were embedded again and cut into thin slices which were stained with H & E and Sirius red, and evaluated by light microscopy. Evaluation was done according to the following criteria:
A1: none; A2: occasional monocytic cells or lymphocytes; A3: moderate numbers or groups of monocytic cells or lymphocytes; A4: dense infiltration of monocytes, eosinophils, or giant cells.
B1: none; B2: collagen-rich layer around the implant; B3: thick (>1 mm) and dense collagen-rich tissue formation around the implant.
In every 10th serial section 10 fields of view uniformly distributed over the circumference of the implant were evaluated and the herein predominant expression was assigned to an event table. In total, 200 fields of view were analyzed per implant

[4] = test system: sciatic nerve; test: Viability of cryopreserved nerve grafts (Annexin-V staining, FACS); type: cell-based, rats; conditions: 100 mmolar solution 1 hour; −30° C. 72 hours
[5] = test system: HeLa, HUVEC and L929 fibroblast; test: cells; type: cell-based; conditions: for EC50: after 48 hours
Method: (§1) Physiologically occurring phospholipids can be taken up by virtually all cell lines in large quantities. It is known that phospholipids that contain non-physiologically occurring fatty acid residues can cause cell lyses or death. Three cell lines (HeLa, HUVEC and L929 fibroblast) were cultured in a suitable culture medium of 5% FCS at 37° C. and 5% CO2 concentrations to a subconfluent concentration of 1.5×10^5 cells.
SOPC, DOPC, POPC, ONOPC, PNLPC, and the free fatty acids of OA, LA, NOOA, and NOLA were dissolved in 0.5% DMSO. […] Cell cultures were incubated for 24 h and 48 h. Thereafter, the culture medium was removed and the cells washed twice. Following this, cells suspensions were given in four vials to perform the following analysis:
For the determination of viability, phenol red was added to the suspended cells. After 4 h, the medium was renewed and 10 μl of the MTT solution was added. The cells were cultured for 4 hours, and then a 10% SDS solution was pipetted. After 24 h, absorption of formazan crystals was measured at 500 nm using a power wave X (bio-tek instruments, Inc., USA). For the quantitative comparison of toxicity, the EC50 was determined.

[6] = test system: HeLa, HUVEC and L929 fibroblast; test: Volumetric measurement of cells (Coulter counter); type: cell-based; conditions: time-dependent increase after incubation
Method: as §1
(§2) SOPC, DOPC, POPC, ONOPC, PNLPC, and the free fatty acids of OA, LA, NOOA, and NOLA were dissolved in 0.5% DMSO. Experiments were performed also with nitro-carboxylic acid-containing phospholipids according to examples N15-N20, G, O3, O5, P2, P5, P8, P9, P11 and Q. PL prepared as aqueous suspensions were added the culture flasks in order to achieve PL concentrations in the culture medium from 10 μmol to 1 mmol. Cell cultures were incubated for 24 h and 48 h. Thereafter, the culture medium was removed and the cells washed twice. Following this, cells suspensions were given in four vials to perform the following analysis:
Volumetric measurement of cells was done in a Histopenz (Sigma) solution with an effective NaCl concentration of 0.9% (approximately 290 mOsm) heated to 37° C. in which the cells were suspended; thereafter the solution was sonified for 2 minutes. Measurements were done using a Coulter counter Z2.

[7] = test system: ovarian tissue strips; test: Cryopreservation of ovarian tissue strips: intact follicles; conditions: liquid nitrogen 14 days, cultured 14 days
Method: (§3) Ovar ectomy was performed in female sheep; resected tissues were cut into 60 ovarian tissue strips. The ovarian strips were either cultured directly (n=4) or prepared with a usual solution for vitrification (VS group; Vitrification Kit, Sage, USA) or incubated with nitrated PLs (NPL group). For this purpose, the tissue strips were bathed in an equibrilation solution (ART-8025-A) which consisted of MOPS-buffered amino acids and gentamicin sulfate (10 mg/l), and 7.5% (v/v) of each DMSO and ethylene glycol and 12 mg/ml human serum albumin for 30 minutes. Thereafter the strips of the VS group were placed in the vitrification solution (ART-8025-B), which is a MOPS-buffered solution containing amino acids and gentamicin sulfate, that contain 15% (v/v) each DMSO and ethylenglycol, 12 mg/ml human albumin and 0.6 M sucrose. The strips of the NPL group were placed in a solution containing 25% (v/v) nitrated PL SNOPC or PNLPC in a PBS-buffered 1% DMSO solution containing 5% human albumin for 60 minutes. The treated tissue strips were then immersed into liquid nitrogen and kept here for 14 days. Then removal and warming of the tissue pieces was performed in AIM-V medium (Gibco, Invitrogen) in a sterile culture dish, first up to 5° C. within 20 minutes, then heated further in a water bath up to 37° C., within the following 60 minutes. The culture medium was replaced and specimens cultured for 14 days. After this, the tissue pieces were fixed, embedded in paraffin and cut, followed by histological examination. […] The total number of intact follicles in the control group was taken as a reference to the number of follicles in the cryopreserved groups.
(§4) The culture medium has been exchanged by every 2nd day; samples for hormone analysis were taken and frozen at that time. Determination of 17 β-estradiol and progesterone were performed with a radio-immuno assay (diagnostic systems laboratories, USA).

[8] = test system: HeLa, HUVEC and L929 fibroblast; test: Cell viability with the live/dead assay; type: cell-based
Method: as §1, §2
Studies of cell viability were carried out with the live/dead assay (Molecular Probes). For this purpose, the cells were washed twice with PBS solution and then seeded into a culture medium. Incubation with the staining solution (in 0.1% DMSO) was carried out over 30 minutes in the dark. The viability analyses were performed using fluorescence microscopy.

[9] = test system: Heart muscle cells from rabbit hearts; test: Cytosolic Ca2+ concentration in heart muscle cells (fluo-4 fluorescence); type: cell-based
Method: Heart muscle cells were taken from rabbit hearts according to a method described elsewhere (Shannon T R, Ginsburg K S, Bers D M. Quantitative assessment of the SRCa^2+ leak-load relationship. Circ Res. 2002; 91:594-600). The prepared cells were cultured for 72 hours.
The cytosolic Ca^2+ concentrations were determined with fluo-4 fluorescence. Therefore the cells were incubated with 10 μmol fluo-4 AM (1%) for 30 minutes and washed thereafter three times with PBS. The cells were stimulated in a Tryode solution on a platinum electrode with a frequency of 0.5 Hz over 20 cycles. Then the ambient medium was changed and an electrolyte-free colloidal solution was added. Determination of the Ca concentration was performed after each series of stimulation over 20 cycles. Calcium content was estimated by the use of confocal laser scanning microscopy (Olympus). At least 10 cells per experiment were evaluated in a post-systolic interval of 1000 ms. The measurements were repeated at least three times. β-adrenergic stimulation was performed with 250 nmol/L isoproterenol, which was given to the medium.

[10] = test system: cortical neurons; test: Hypoxia and reperfusion of cortical neurons (viability, LDH)
[11] = test system: ovarian tissue strips; test: Cryopreservation of ovarian tissue strips: 17 β-estradiol and progesterone (radio-immuno assay); type: cell-based, sheep; conditions: after cryopreservation and culture
Method: as §3, §4

[12] = test system: Cardiac muscle cells derived from neonatal rat heart; test: Hypoxia of cardiac muscle cells (viability, mitochondrial NAD+); type: cell-based; conditions: for mitochondrial NAD+ content: hypoxia, baseline 5
Method: Cardiac muscle cells derived from neonatal rat heart (Nitobe J, et al, Reactive oxygene species regulate FLICE inhibitory protein and susceptibility to FAS-mediated apoptosis in cardiac myocytes. Cardiovasc RES 2003, 119-28). The heart muscle cells were cultured in Dulbecco/Eagle medium (DMEM) with 10% FCS added under standard conditions for two days. Incubation with the natural and nitrated phospholipids, as well as the hypoxia experiments were carried out as described above. Incubated cells were grown in culture medium under standard conditions for 24 hours. This is followed by a vitality staining as described above. […] The frozen cells were thawed up to -4° C. and homogenized for subsequent NAD^+ analyses. By means of differential centrifuge, pellets containing mitochondria were separated (Di Lisa, et al, 1993; Am. J. Physiol. 264, […]-[…]). The NAD^+ content was determined by fluoroscopy, and normalized to the protein content (Veloso, D., and […]., 1974;) Anal. Biochem., 449-450).

[13] = for the different cell lines, read-out: EC50 concentration (MTT assay)

## CCCCCCCC/C=C(\CCCCCCCC(=O)OC[C@H](COP(=O)(O)OCCN)OC(=O)CCCCCCC/C(=C\CCCCCCCC)[N+](=O)[O-])[N+](=O)[O-] [Example D, 1,2-di-(9-nitrooleoyl)-sn-3-glycero-phosphatidylethanolamine]
[1]
  mechanical removal of coating substance and workload to pull the catheter through PTFE tubing: Very similar results
[2]
  inducible membrane channel activity of TRP channels: significant decrease of inducible membrane channel activity
[3]
  biocompatibility of coated implants compared to natural PLs: improved biocompatibility of implants several-fold
[4]
  proportion of living cells relative to non-frozen control: 89%

## CCCCCCCC/C=C(\CCCCCCCC(=O)OC[C@H](COP(=O)([O-])OCC[N+](C)(C)C)OC(=O)CCCCCCC/C(=C\CCCCCCCC)[N+](=O)[O-])[N+](=O)[O-] [Example B, 1,2-di-(9-nitrooleoyl)-sn-3-glycerophosphocholine]
[1]
  mechanical removal of coating substance and workload to pull the catheter through PTFE tubing: Very similar results
[2]
  inducible membrane channel activity of TRP channels: significant decrease of inducible membrane channel activity
[3]
  biocompatibility of coated implants compared to natural PLs: improved biocompatibility of implants several-fold
[4]
  proportion of living cells relative to non-frozen control: 83%

## CCCCC/C=C\C/C=C(\CCCCCCCC(=O)O)[N+](=O)[O-] [nitro-linoleic acid, E-9-nitrolinoleic acid]
[5]; [13]
  EC50: 50 to 100 µM
[6]
  cell volume (increase in size to): 120%

## CCCCCCCC/C=C(\CCCCCCCC(=O)O)[N+](=O)[O-] [nitro oleic acid, E-9-nitrooleic acid]
[5]; [13]
  EC50: 10 to 50 µM
[6]
  cell volume (increase in size to): 140%

## CCCCCCCC/C=C\CCCCCCCC(=O)O [oleic acid, Oleic acid]
[5]; [13]
  EC50: 180 to 260 µM
[6]
  cell volume (increase in size to): 200%

## CCCCCCCC/C=C(\CCCCCCCC(=O)O[C@H](COC(=O)CCCCCCCCCCCCCCC)COP(=O)([O-])OCC[N+](C)(C)C)[N+](=O)[O-] [Example P8, 1-palmitoyl-2-(E-9-nitrooleoyl)-sn-3-glycerophosphocholine]
[7]
  rate of intact follicles relative to the control group: 96%
[2]
  inducible membrane channel activity of TRP channels: significant decrease of inducible membrane channel activity

## CCCCCCCCC=C(CCCCCCCC(=O)OC[C@H](COP(=O)(O)OC[C@H](N)C(=O)O)OC(=O)CCCCCCCC(=CCCCCCCCC)[N+](=O)[O-])[N+](=O)[O-] [Example E, 1,2-di-(9-nitrooleoyl)-sn-3-glycerophosphatidylserine]
[1]
  mechanical removal of coating substance and workload to pull the catheter through PTFE tubing: Very similar results
[2]
  inducible membrane channel activity of TRP channels: significant decrease of inducible membrane channel activity

## CCCCCCCC/C=C\CCCCCCCC(=O)OC[C@H](COP(=O)([O-])OCC[N+](C)(C)C)OC(=O)CCCCCCC/C=C\CCCCCCCC [DOPC, 1,2-dioleoyl-sn-glycero-3-PC]
[8]
  viability according to the live/dead staining: high rate of viability
[5]; tested concentrations 10 μmol to 1 mmol, EC50 could not be calculated
  viability as quantified by the MTT assay: only slightly decreased
[6]
  cell volume (increase in size to): 180%

## CCCCC/C=C\CC=C(CCCCCCCC(=O)O[C@H](COC(=O)CCCCCCCCCCCCCCC)COP(=O)([O-])OCC[N+](C)(C)C)[N+](=O)[O-] [Example P7, 1-palmitoyl-2-(9-nitrolinoleoyl)-sn-3-glycerophosphocholine]
[9]; after hypoxia
  end of diastole (ED) cytosolic calcium: 70 nmol/L
  post systolic (PS) cytosolic calcium: 30 nmol
[9]; after hypoxia and stimulation with isoproterenol
  end of diastole (ED) cytosolic calcium: 100 nmol/L
[9]; normoxic conditions
  end of diastole (ED) cytosolic calcium: 30 nmol/L
  post systolic (PS) cytosolic calcium: 10 nmol
[10]; 10-minutes ischemia
  increase in LDH versus normoxemia culture: 130 fold
  viability of cortical cells measured after 24 hours: 70%
[10]; 30-minutes ischemia
  increase in LDH versus normoxemia culture: 290 fold
  viability of cortical cells measured after 24 hours: 52%
[5]
  total viability (MTT assay): 75%
[5]; range over cell lines, read-out: EC50 (MTT assay)
  EC50: 400 to 3900 µM
[7]
  rate of intact follicles relative to the control group: 98%
[11]
  estradiol: 8.3 ng/mL
  progesterone: 0.4 ng/mL
[12]; (10 minutes)
  loss of viability of heart muscle cells after hypoxia: 5%
[12]; (30 minutes)
  loss of viability of heart muscle cells after hypoxia: 18%
[12]; first printed value
  mitochondrial NAD+ content: 3.6 nmol/mg protein
[12]; second printed value
  mitochondrial NAD+ content: 3.1 nmol/mg protein
[2]
  inducible membrane channel activity of TRP channels: significant decrease of inducible membrane channel activity
[3]
  biocompatibility of coated implants compared to natural PLs: improved biocompatibility of implants several-fold

## CCCCC/C=C\C/C=C\CCCCCCCC(=O)O [linoleic acid, Linoleic acid]
[5]; [13]
  EC50: 240 to 260 µM
[6]
  cell volume (increase in size to): 170%
